Measurements reported in patent US20130150346A1, “Use of FAAH Inhibitors for Treating Parkinson's Disease and Restless Legs Syndrome” (Ironwood Pharmaceutical, Inc., priority 2010, published 2013).

Legend:
[1] = test system: MPTP-lesioned marmosets; test: Motor activity (passive infra-red sensors: total activity, high activity counts and time) in MPTP-lesioned marmosets; type: in vivo, common marmosets (Callithrix jacchus)
Method: Six common marmosets (Callithrix jacchus; female; weight, 350-500 g (Harlan, Madison, Wis., USA)) were kept under conditions of controlled temperature (25±2° C.) and a 12-hour light/dark cycle (lights on 6:30 a.m.). Animals were group housed and had access to food, fresh-fruit supplements and water ad libitum and their home cage environment was enriched with primate toys, perches and auditory stimuli. Prior to start of studies, animals were acclimatized to handling, blood collection and administration of treatments (oral syringe feeding and subcutaneous injection) as well as transfer to observation cages for assessment of behavior. A parkinsonian syndrome was induced by once-daily subcutaneous administration of MPTP hydrochloride (Sigma, Canada; 2 mg/kg base concentration in 0.9% saline) for 5 consecutive days. Following this, animals were allowed to recover for 12 weeks to allow parkinsonian symptoms to develop and stabilize. […] Treatment-related complications including dyskinesia and psychosis-like behaviors were evoked by twice-daily treatment with L-DOPA p.o. (as Prolopa®, Roche Canada, Ontario, equivalent to 15 mg/kg L-DOPA and 3.5 mg/kg benserazide) for a minimum of 30 days. […] Disord. 21:839-846; Visanji et al. (2008) Mov. Disord. 23:1922-1925; Visanji et al (2009) Neurobiol Dis. 35: 184-192]. After this time, the animals were used in several studies to evaluate potential anti-parkinsonian and anti-dyskinetic agents. A minimum period of two weeks was allowed between completing any prior study and commencing this study, a period in excess of ten half-lives since administration of any previously employed experimental drug. Throughout the course of the study, on days not requiring plasma sampling or behavioral observations, animals were treated once daily with oral L-DOPA therapy, given at 10:00 a.m. to maintain stable levels of complications. Marmosets treated with MPTP as described in this example are referred to as MPTP-lesioned marmosets.
To assess the effect of treatment on plasma FAAH substrate level, total activity, high activity time and count, data were analyzed using a parametric repeated-measures (RM) 1-way analysis of variance (ANOVA) followed by a Student Newman-Keuls Multiple Comparison post hoc test. To assess the effect of treatment on plasma L-DOPA level a paired, two-tailed t-test was used. All FAAH (AEA, OEA, PEA) subbstrate and L-DOPA plasma level data and activity data are presented as the group mean and SEM For measures of parkinsonian disability, dyskinesia and psychosis, data were analyzed via Friedman's test with Dunn's Multiple Comparison post hoc test. […] In all cases, p<0.05 was taken to represent a significant difference.
MPTP hydrochloride (Sigma, Canada) was dissolved in 0.9% NaCl sterile solution to a concentration of 0.2 mg/ml (freebase) and administered at 1 ml/kg. Maintenance L-DOPA, administered as Prolopa® capsules (Roche, Mississauga, ON, Canada) containing 50 mg L-DOPA and 12.5 mg benserazide (freebase) was dissolved in Gatorade sports beverage (The Gatorade Company, Chicago, Ill.) prior to oral administration by syringe at a volume of 10 ml/kg. On days of behavioral assessment, L-DOPA (20 mg/kg, freebase) was prepared from the methyl ester form (Sigma, Canada) in combination with benserazide hydrochloride (5 mg/kg, freebase, Sigma, Canada) dissolved in 0.9% sterile saline containing 0.1% ascorbate (Sigma, Canada) and 0.05% absolute ethanol. URB597 (Cayman Chemical, Ann Arbor, Mich.) was formulated in a vehicle containing 50% corn oil (Professional Compounding Centers of America (PCCA), Houston, Tex.) and 50% nutritional drink Ensure™ (Abbott Nutrition, Chicago, Ill.) to make the suspension palatable for marmoset oral dosing. Requisite amounts of URB597 were weighed into sterile 50 ml polypropylene tubes (for the 3, 10, 30 and 60 mg/kg doses, 12, 40, 120 and 240 mg were weighed respectively). Then, 10 ml Corn oil was added and mixed until homogenous.

[2] = Plasma L-DOPA levels by LC-MS/MS in MPTP-lesioned marmosets; type: in vivo, common marmosets (Callithrix jacchus); conditions: URB597 10 mg/kg p.o., 2 h post L-DOPA, 4 h post URB597, p>0.05, paired t-test
Method: Six common marmosets (Callithrix jacchus; female; weight, 350-500 g (Harlan, Madison, Wis., USA)) were kept under conditions of controlled temperature (25±2° C.) and a 12-hour light/dark cycle (lights on 6:30 a.m.). Animals were group housed and had access to food, fresh-fruit supplements and water ad libitum and their home cage environment was enriched with primate toys, perches and auditory stimuli. Prior to start of studies, animals were acclimatized to handling, blood collection and administration of treatments (oral syringe feeding and subcutaneous injection) as well as transfer to observation cages for assessment of behavior. A parkinsonian syndrome was induced by once-daily subcutaneous administration of MPTP hydrochloride (Sigma, Canada; 2 mg/kg base concentration in 0.9% saline) for 5 consecutive days. Following this, animals were allowed to recover for 12 weeks to allow parkinsonian symptoms to develop and stabilize. […] Treatment-related complications including dyskinesia and psychosis-like behaviors were evoked by twice-daily treatment with L-DOPA p.o. (as Prolopa®, Roche Canada, Ontario, equivalent to 15 mg/kg L-DOPA and 3.5 mg/kg benserazide) for a minimum of 30 days. […]
The effect of oral treatment with either vehicle or URB597 (10 mg/kg) on plasma levels of L-DOPA was assessed at the beginning of the period of peak L-DOPA effect, i.e., 2 h after L-DOPA administration. […]

[3] = URB597 10 mg/kg p.o. + L-DOPA 20 mg/kg s.c., 2-4 h, p<0.05
[4] = URB597 10 mg/kg p.o. + L-DOPA 20 mg/kg s.c., 2-4 h, p>0.05

For `NC(=O)c1cccc(-c2cccc(OC(=O)NC3CCCCC3)c2)c1` [URB597], which “reduction of L-DOPA-induced total activity compared to L-DOPA alone” value [1, 3] is on record?
Its value is 32%.

And the “reduction of high activity counts evoked by L-DOPA” value [1, 3]?
The value was 52%.

What about the “reduction of high activity time evoked by L-DOPA” value [1, 3] of the same molecule?
The value was 48%.

And the “high activity counts and high activity time compared to normal, unlesioned animals” value [1, 4]?
The value was “not significantly different”.

And the “total activity relative to normal, un-lesioned animals” value [1, 4]?
The value was 119 % of normal.

What about the “time after which total activity counts were no longer significantly different compared to vehicle (s.c.)-treated animals” value ([1]; URB597 10 mg/kg p.o. + L-DOPA 20 mg/kg s.c., 6 h time course) of the same molecule?
The value was 2.5 h.

What about the “effect on total activity and high activity cf. vehicle” value ([1]; URB597 10 mg/kg p.o. given alone (vehicle s.c.), p>0.05) of the same molecule?
Its value is “did not modify”.

What about the total activity counts ([1]; URB597 10 mg/kg p.o. in combination with L-DOPA 20 mg/kg s.c., 2-4 h, mean±SEM, n=6) of the same molecule?
The total activity counts was 1879±332 counts.

What about the “effect of URB597 on plasma L-DOPA levels” value [2] of the same molecule?
The value was “did not alter”.
